From patent publication US5238825A, “Preparation and use of a cyclodextrinase for preparing maltooligosaccharides” (Kikkoman Corporation, priority 1989, dated 1993)
Like-named read-outs stand apart in the source and are kept apart here.

How the values were obtained:
cyclodextrinase [1] = target: T1, cyclodextrinase (Lysinibacillus sphaericus, UniProt Q08341); experiment: Influence of metal ions on the activity of the present enzyme; assay type: biochemical, Bacillus sphaericus; settings: for Residual activity: ions added, final conc. 1 mM, none = 100
T1 construct: is cultured in a medium to yield and accumulate said cyclodextrinase, and this enzyme is collected from the culture; made in house; host or cells: Bacillus sphaericus E-244 (FERM BP-2458), the natural wild-type producer strain; not recombinant
T1 sequence (Q08341 1-591): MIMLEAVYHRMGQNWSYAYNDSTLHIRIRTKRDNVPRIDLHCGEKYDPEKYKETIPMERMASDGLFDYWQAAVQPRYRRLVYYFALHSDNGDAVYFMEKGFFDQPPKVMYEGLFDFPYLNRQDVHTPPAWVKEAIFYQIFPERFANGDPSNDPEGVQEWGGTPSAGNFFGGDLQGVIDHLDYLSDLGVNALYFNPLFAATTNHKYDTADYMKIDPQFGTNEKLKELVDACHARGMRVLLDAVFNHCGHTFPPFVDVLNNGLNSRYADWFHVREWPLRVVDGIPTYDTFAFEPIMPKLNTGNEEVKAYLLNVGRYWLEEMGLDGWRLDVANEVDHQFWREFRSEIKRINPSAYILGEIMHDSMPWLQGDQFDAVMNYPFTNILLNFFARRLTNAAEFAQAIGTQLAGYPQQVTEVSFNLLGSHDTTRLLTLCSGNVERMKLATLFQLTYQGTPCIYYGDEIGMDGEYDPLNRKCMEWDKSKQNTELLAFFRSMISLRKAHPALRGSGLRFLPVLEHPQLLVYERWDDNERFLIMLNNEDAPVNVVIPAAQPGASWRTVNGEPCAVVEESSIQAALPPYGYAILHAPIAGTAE
Description: (§1) When the amount of the enzyme was small, the reducing power of the enzyme was determined according to Nelson-Somogyi's method, with glucose as standard.

cyclodextrinase [2] = target: T1, cyclodextrinase; experiment: Substrate specificity of the present cyclodextrinase (relative hydrolysis rate); assay type: biochemical, Bacillus sphaericus
Description: as §1

cyclodextrinase [3] = target: T1, cyclodextrinase; experiment: Reaction rate parameters of the present enzyme for cyclodextrins and maltooligosaccharides; assay type: biochemical, Bacillus sphaericus; set-up: Vmax: unit not given here; settings: for Relative value: Vmax/Km relative to β-cyclodextrin = 1.00
Description: as §1

cyclodextrinase [4] = settings: Bacillus coagulans enzyme, prior literature; cited from earlier work
cyclodextrinase [5] = settings: Bacillus macerans enzyme, prior literature; cited from earlier work
[6] = substrate conc. 2 mM, β-cyclodextrin = 100
[7] = substrate conc. 0.1%, β-cyclodextrin (2 mM) = 100

Compound | Residual activity (cyclodextrinase [1]) [%] | Vmax (cyclodextrinase [3]) | Relative value (cyclodextrinase [3]) | further results
[Ca+2] [Ca^2+] | 138.2 |  |  | activation of the enzyme by metal ion (cyclodextrinase [1]): 10-30%
[Cu+2] [Cu^2+] | 2.8 |  |  | 
[Fe+3] [Fe^3+] | 41.6 |  |  | Residual activity (cyclodextrinase [1]; listed as Fe^2+): 4.6%
[Hg+2] [Hg^2+] | 0.0 |  |  | 
OC[C@H]1O[C@H](O[C@H]2[C@H](O)[C@@H](O)[C@@H](O[C@H]3[C@H](O)[C@@H](O)[C@@H](O[C@H]4[C@H](O)[C@@H](O)[C@@H](O[C@H]5[C@H](O)[C@@H](O)[C@@H](O[C@H]6[C@H](O)[C@@H](O)[C@@H](O[C@H]7[C@H](O)[C@@H](O)C(O)O[C@@H]7CO)O[C@@H]6CO)O[C@@H]5CO)O[C@@H]4CO)O[C@@H]3CO)O[C@@H]2CO)[C@H](O)[C@@H](O)[C@@H]1O (some centres unmarked) [Maltoheptaose] |  | 0.060 | 0.30 | Relative hydrolysis rate (cyclodextrinase [2]; [6]): 66%
OC[C@H]1O[C@H](O[C@H]2[C@H](O)[C@@H](O)[C@@H](O[C@H]3[C@H](O)[C@@H](O)[C@@H](O[C@H]4[C@H](O)[C@@H](O)[C@@H](O[C@H]5[C@H](O)[C@@H](O)[C@@H](O[C@H]6[C@H](O)[C@@H](O)C(O)O[C@@H]6CO)O[C@@H]5CO)O[C@@H]4CO)O[C@@H]3CO)O[C@@H]2CO)[C@H](O)[C@@H](O)[C@@H]1O (some centres unmarked) [Maltohexaose] |  | 0.075 | 0.23 | Relative hydrolysis rate (cyclodextrinase [2]; [6]): 43%; Km (cyclodextrinase [4]): 1500 µM
OC[C@H]1O[C@H](O[C@H]2[C@H](O)[C@@H](O)[C@@H](O[C@H]3[C@H](O)[C@@H](O)[C@@H](O[C@H]4[C@H](O)[C@@H](O)[C@@H](O[C@H]5[C@H](O)[C@@H](O)C(O)O[C@@H]5CO)O[C@@H]4CO)O[C@@H]3CO)O[C@@H]2CO)[C@H](O)[C@@H](O)[C@@H]1O (some centres unmarked) [Maltopentaose] |  | 0.073 | 0.27 | Relative hydrolysis rate (cyclodextrinase [2]; [6]): 49%
OC[C@H]1O[C@H](O[C@H]2[C@H](O)[C@@H](O)[C@@H](O[C@H]3[C@H](O)[C@@H](O)[C@@H](O[C@H]4[C@H](O)[C@@H](O)C(O)O[C@@H]4CO)O[C@@H]3CO)O[C@@H]2CO)[C@H](O)[C@@H](O)[C@@H]1O (some centres unmarked) [Maltotetraose] |  | 0.067 | 0.15 | 
[Mg+2] [Mg^2+] | 111.3 |  |  | activation of the enzyme by metal ion (cyclodextrinase [1]): 10-30%
[Mn+2] [Mn^2+] | 59.3 |  |  | 
[Ni+2] [Ni^2+] | 0.9 |  |  | 
[Zn+2] [Zn^2+] | 0.0 |  |  | 
OC[C@H]1O[C@@H]2O[C@H]3[C@H](O)[C@@H](O)[C@@H](O[C@H]4[C@H](O)[C@@H](O)[C@@H](O[C@H]5[C@H](O)[C@@H](O)[C@@H](O[C@H]6[C@H](O)[C@@H](O)[C@@H](O[C@H]7[C@H](O)[C@@H](O)[C@@H](O[C@H]1[C@H](O)[C@H]2O)O[C@@H]7CO)O[C@@H]6CO)O[C@@H]5CO)O[C@@H]4CO)O[C@@H]3CO [α-cyclodextrin] |  | 0.074 | 0.36 | Relative hydrolysis rate (cyclodextrinase [2]; [6]): 44%; Km (cyclodextrinase [4]): 10000 µM; Km (cyclodextrinase [5]): 2620 µM
OC[C@H]1O[C@@H]2O[C@H]3[C@H](O)[C@@H](O)[C@@H](O[C@H]4[C@H](O)[C@@H](O)[C@@H](O[C@H]5[C@H](O)[C@@H](O)[C@@H](O[C@H]6[C@H](O)[C@@H](O)[C@@H](O[C@H]7[C@H](O)[C@@H](O)[C@@H](O[C@H]8[C@H](O)[C@@H](O)[C@@H](O[C@H]1[C@H](O)[C@H]2O)O[C@@H]8CO)O[C@@H]7CO)O[C@@H]6CO)O[C@@H]5CO)O[C@@H]4CO)O[C@@H]3CO [β-cyclodextrin] |  | 0.110 | 1.00 | Relative hydrolysis rate (cyclodextrinase [2]; [6]): 100%; Km (cyclodextrinase [4]): 2800 µM; Km (cyclodextrinase [5]): 2650 µM
OC[C@H]1O[C@@H]2O[C@H]3[C@H](O)[C@@H](O)[C@@H](O[C@H]4[C@H](O)[C@@H](O)[C@@H](O[C@H]5[C@H](O)[C@@H](O)[C@@H](O[C@H]6[C@H](O)[C@@H](O)[C@@H](O[C@H]7[C@H](O)[C@@H](O)[C@@H](O[C@H]8[C@H](O)[C@@H](O)[C@@H](O[C@H]9[C@H](O)[C@@H](O)[C@@H](O[C@H]1[C@H](O)[C@H]2O)O[C@@H]9CO)O[C@@H]8CO)O[C@@H]7CO)O[C@@H]6CO)O[C@@H]5CO)O[C@@H]4CO)O[C@@H]3CO [γ-cyclodextrin] |  | 0.039 | 0.09 | 
Amylopectin |  |  |  | Relative hydrolysis rate (cyclodextrinase [2]; [7]): 0.7%
Amylose [Amylose (G18)] |  |  |  | Relative hydrolysis rate (cyclodextrinase [2]; [7]): 44%
Amylose [Amylose (G99)] |  |  |  | Relative hydrolysis rate (cyclodextrinase [2]; [7]): 3.7%
Dextran |  |  |  | Relative hydrolysis rate (cyclodextrinase [2]; [7]): 11%
Pullulan |  |  |  | Relative hydrolysis rate (cyclodextrinase [2]; [7]): 1.5%
Starch |  |  |  | Relative hydrolysis rate (cyclodextrinase [2]; [7]): 2.9%
